The values that follow come from US4073903A, “3-Desacetoxymethyl-3- 5'(1-methyltetrazolyl)thio!methyl-7- 1-(4-nitr oimidazolyl)acetyl!aminocephalosporanic acid” (Pierrel S.p.A., priority 1975, dated 1978).

Molecules are shown by their SMILES. In brackets after ≈: the same amount, converted by molar mass. Counter-ions that a name gives are not always drawn. Like-named read-outs stand apart in the source and are kept apart here.

A short description of one series: Solubility. In kind it is physicochemical. Particulars: sodium salt; water.
The next series in a line: Stability as a solid. In kind it is physicochemical.
Series [1] relates to Klebsiella pneumoniae. The settings on record: in Mus musculus, 168 h, read-out: ED50 per treatment.
A further series has as its system Salmonella wien. The series is described as follows: MIC against Ampicillin-resistant clinical isolates, broth dilution test (Table IV). The settings on record: Salmonella enterica, 24 h.
The subject of series [2] is Escherichia coli. The series is described as follows: MIC against clinical isolates, broth dilution test (Table III). The settings on record: Escherichia coli, 24 h.
The subject of series [3] is Klebsiella pneumoniae. The series is described as follows: MIC against clinical isolates, broth dilution test (Table II). Particulars: Klebsiella pneumoniae, 24 h. In general terms: Dilution methods test growth across graded concentrations, often in twofold steps.
The subject of the next series is Salmonella heidelberg. The series is described as follows: MIC against Ampicillin-resistant clinical isolates, broth dilution test (Table IV). Particulars: Salmonella enterica, 24 h, read-out: Minimun inhibitory concentration (MIC).
The test system of series [4] is Escherichia coli. The series is described as follows: Treatment of mice systemically infected with Escherichia coli (Table V). The settings on record: in Mus musculus, 168 h, read-out: ED50 per treatment.
The next series concerns Salmonella essen. The experiment in a line: MIC against Ampicillin-resistant clinical isolates, broth dilution test (Table IV). Particulars: Salmonella enterica, 24 h, read-out: Minimun inhibitory concentration (MIC).

Broadly, the solubility is the dissolved amount per volume that the medium holds. Take `Cn1nnnc1SCC1=C(C(=O)O)N2C(=O)C(NC(=O)Cn3cnc([N+](=O)[O-])c3)C2SC1` (stereo not drawn) [sodium salt]: the solubility in the series “Solubility” is roughly 500 mg/mL. Moreover, the Stability entry in “Stability as a solid” is “stable as a solid”.
In general, ED50 refers to the midpoint of the dose-response relation. Take `Cc1nnc(SCC2=C(C(=O)O)N3C(=O)[C@@H](NC(=O)Cn4cnnn4)[C@H]3SC2)s1` [Cefazolin, reference compound]: the ED50 came to 90 mg/kg in the series with Klebsiella pneumoniae [1] and 35 mg/kg in the series with Escherichia coli [4]. The MIC amounted to 25 µg/mL (≈ 55 µM) in the series on Salmonella wien (read-out: Minimun inhibitory concentration (MIC), Ampicillin-resistant clinical isolate LRP 138); 50 µg/mL (≈ 110 µM) with Salmonella wien (read-out: Minimun inhibitory concentration (MIC), Ampicillin-resistant clinical isolate LRP 140); 100 µg/mL (≈ 220 µM) with Salmonella wien (read-out: Minimun inhibitory concentration (MIC), Ampicillin-resistant clinical isolate LRP 141); 25 µg/mL (≈ 55 µM) in the series with Escherichia coli [2] (read-out: Minimum inhibitory concentration (MIC), clinical isolate LRP 87); 6.25 µg/mL (≈ 13.8 µM) with Escherichia coli [2] (read-out: Minimum inhibitory concentration (MIC), clinical isolate LRP 94); 6.25 µg/mL (≈ 13.8 µM) with Escherichia coli [2] (read-out: Minimum inhibitory concentration (MIC), clinical isolate LRP 96). Also, the MIC in the series on Escherichia coli [2] (read-out: Minimum inhibitory concentration (MIC), clinical isolate LRP 110) is 6.25 µg/mL (≈ 13.8 µM); in the series on Escherichia coli [2] (read-out: Minimum inhibitory concentration (MIC), clinical isolate LRP 143), 1.56 µg/mL (≈ 3.43 µM); with Escherichia coli [2] (read-out: Minimum inhibitory concentration (MIC), clinical isolate LRP 150) it was 12.5 µg/mL (≈ 27.5 µM); with Escherichia coli [2] (read-out: Minimum inhibitory concentration (MIC), clinical isolate LRP 151), 12.5 µg/mL (≈ 27.5 µM); in the series on Escherichia coli [2] (read-out: Minimum inhibitory concentration (MIC), clinical isolate LRP 152), 100 µg/mL (≈ 220 µM); with Escherichia coli [2] (read-out: Minimum inhibitory concentration (MIC), clinical isolate LRP 154) it was 3.12 µg/mL (≈ 6.86 µM). In addition, the MIC with Escherichia coli [2] (read-out: Minimum inhibitory concentration (MIC), clinical isolate LRP 155) is 1.56 µg/mL (≈ 3.43 µM); in the series on Escherichia coli [2] (read-out: Minimum inhibitory concentration (MIC), clinical isolate LRP 156), 6.25 µg/mL (≈ 13.8 µM); in the series on Escherichia coli [2] (read-out: Minimum inhibitory concentration (MIC), clinical isolate LRP 158), 25 µg/mL (≈ 55 µM); in the series with Escherichia coli [2] (read-out: Minimum inhibitory concentration (MIC), clinical isolate LRP 159), 1.56 µg/mL (≈ 3.43 µM); in the series with Escherichia coli [2] (read-out: Minimum inhibitory concentration (MIC), clinical isolate LRP 163) it was 3.12 µg/mL (≈ 6.86 µM); with Klebsiella pneumoniae [3] (read-out: Minimum inhibitory concentration (MIC), clinical isolate LRP 128), 25 µg/mL (≈ 55 µM). Further, the MIC was determined as 3.12 µg/mL (≈ 6.86 µM) with Klebsiella pneumoniae [3] (read-out: Minimum inhibitory concentration (MIC), clinical isolate LRP 129); 25 µg/mL (≈ 55 µM) in the series on Klebsiella pneumoniae [3] (read-out: Minimum inhibitory concentration (MIC), clinical isolate LRP 130); 25 µg/mL (≈ 55 µM) in the series on Klebsiella pneumoniae [3] (read-out: Minimum inhibitory concentration (MIC), clinical isolate LRP 131); 1.56 µg/mL (≈ 3.43 µM) with Klebsiella pneumoniae [3] (read-out: Minimum inhibitory concentration (MIC), clinical isolate LRP 132); 1.56 µg/mL (≈ 3.43 µM) with Klebsiella pneumoniae [3] (read-out: Minimum inhibitory concentration (MIC), clinical isolate LRP 133); 3.12 µg/mL (≈ 6.86 µM) in the series on Klebsiella pneumoniae [3] (read-out: Minimum inhibitory concentration (MIC), clinical isolate LRP 134). Further, the MIC was determined as 25 µg/mL (≈ 55 µM) in the series on Klebsiella pneumoniae [3] (read-out: Minimum inhibitory concentration (MIC), clinical isolate LRP 135); 50 µg/mL (≈ 110 µM) in the series with Klebsiella pneumoniae [3] (read-out: Minimum inhibitory concentration (MIC), clinical isolate LRP 136); 0.25 µg/mL (≈ 0.55 µM) in the series with Klebsiella pneumoniae [3] (read-out: Minimum inhibitory concentration (MIC), clinical isolate LRP 137); 12.5 µg/mL (≈ 27.5 µM) in the series with Salmonella heidelberg; 6.25 µg/mL (≈ 13.8 µM) in the series with Salmonella essen.
